According to patent publication US8148320B2, “Peptide inhibitors of ABL kinases” (New York Blood Center, Inc., priority 2005, dated 2012):
Entries after “also recorded” stand apart in the source; their conditions may differ. Like-named read-outs stand apart in the source and are kept apart here. Where no end group is shown, it is not given here.

Experiments:
c-AbI kinase = c-AbI kinase assay with biotinylated model substrate peptide and 32P-γ-ATP; format: biochemical; details: for Fold Change (PEP): Vmax relative to PEP
Protocol: (§1) AbI kinase. His-tagged, uncapped active c-AbI, E46 through C-terminus (isoform 1b) (kind gift of Tony Koleske, Yale University, New Haven, Conn.), was produced and purified from baculovirus as described (Tanis et al., 2003) following treatment of insect cells with 30 μM STI-571 (Novartis Pharma AG, Basel, Switzerland) for 48 hrs prior to cell lysis. The expressed protein was affinity purified on nickel-nitriloacetic acid agarose, washed to remove the inhibitor, and subsequently purified by ion-exchange chromatography using a Mono S column (Amersham Biosciences, Piscataway, N.J.). GST fusions of c-AbI SH2 domain wild type and SH2 domain containing the R171K mutation, and mammalian expression plasmid containing c-AbI-GST (isoform 1b, with the GST at the C-terminus) were obtained from Bruce Mayer (University of Connecticut Health Center, Farmington, Conn.).
Kinase assay. Measurement of kinase activity was essentially as described in (Tanis et al., 2003), using biotinylated model substrate peptide GGEAIYAAPFKK (SEQ ID NO: 16), (Brasher and Van Etten, 2000; Songyang et al., 1995) and ^32P-γ-ATP. SAM2 streptavidin-coated membrane (Promega Corφoration, Madison Wis.) was used to capture the substrate. Kinase assay mixtures contained 50 mM Tris-HCI pH 7.5, 10 mM MgCl2, 1 mM EGTA, 2 mM dithiothreitol, 0.01% Brij 35, and 100 μM ATP, 2 nM AbI kinase, substrate peptides, and Abil ligand peptides as indicated. Reactions were carried out for 5 min. at 30° C. To evaluate c-AbI kinase activity in LnCAP cell lines, cells were treated with pervanadate for 10 min. prior to cell lysis, and immunoprecipitates from lysed cells were tested using GST-Crk as substrate.

AbI SH2 domain = molecular target: T1, AbI SH2 domain (Homo sapiens, UniProt P00519); assay: Surface plasmon resonance (Biacore) binding of biotinylated Abi1 peptides to GST-tagged AbI SH2 domain
T1 construct: GST-tagged AbI SH2 domain; gift of Bruce Mayer (University of Connecticut Health Center)
T1 sequence (P00519 127-217 limits assumed): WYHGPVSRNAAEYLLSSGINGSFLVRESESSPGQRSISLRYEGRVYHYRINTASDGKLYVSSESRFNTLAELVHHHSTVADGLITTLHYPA
Protocol: as §1
Surface Plasmon Resonance Assay. Surface plasmon resonance assay was performed using a Biacore 3000 instrument (BlAcore Inc., Piscataway, N.J.). Biotinylated 14-residue peptides, pY213 or Y213, were coupled to surface of streptavidin-coated (SA) biosensor chip (BIAcore Inc., Piscataway, N.J.). […] Sensograms (plots of changes in response unit on the surface as a function of time) derived were analyzed using the software BIAeval 3.0. […]

[1] = concentrations lower than 2 mM, 100 μM substrate peptide
[2] = peptide concentration 2 mM, 100 μM substrate peptide
[3] = increasing peptide concentrations, 100 μM substrate peptide

For “GGEAIYAAPFKK (also: biotinylated, site not given here) [PEP, reference compound]”, the Km (c-AbI kinase; Km of substrate peptide PEP alone) was 21.2 ± 3.37 µM, the “Fold Change (PEP)” value (c-AbI kinase; PEP alone) was 1.00 and the Vmax (c-AbI kinase; substrate peptide PEP alone, no Abi1 peptide, mean ± s.d., n=3) was 157.79 ± 9.29 pmol/min-μg.
In the case of “GTLSRTNPLTQKPPSPPMSGRGTLGRNTPYKTLEPVKPPTVPNDpYMTSP [Pro-pY213]”, the “Kd (in words)” value (AbI SH2 domain; GST-SH2, Biacore, data not shown) is reported as “low millimolar range”, the “effect on c-AbI kinase activity (in words)” value (“effect” below) (c-AbI kinase) is reported as “showed inhibition” and the “effect” value (c-AbI kinase; [1]) is reported as “no inhibition was observed”. The “effect” value (c-AbI kinase; peptide 1.5 mM) was “decrease of activity”, the “effect” value (c-AbI kinase; peptide 0.75 to 1.25 mM) was “increased the kinase activity” and the “effect” value (c-AbI kinase; peptide 1.75 and 2 mM) was “inhibition”. The “effect” value (c-AbI kinase; [2]) was “enhanced the inhibitory effect”.
With “Pro-F198: Abi1 peptide spanning residues 169-203 with Y198 to F198 replacement (GTLSRTNPPTQKPPSPPMSGRGTLGRNTPFKTLEP; UniProt Q8IZP0 169-203, looked up, variant Y198F)” the “effect” value (c-AbI kinase; [3]) was “effect was lost”.
“Pro-Y198: Abi1 peptide spanning residues 169-203, with PXXP motif PPSPP and Y198, excludes pY213 sequence” was tested, and the “effect” value (c-AbI kinase; [3]) was “increased inhibition”.
For “Y213: 14-residue Abi1 peptide containing nonphosphorylated tyrosine 213 (VKPPTVPNDYMTSP; not fully specified) [Peptide Y213]”, the “effect” value (c-AbI kinase) was “showed inhibition; also recorded: most potent inhibition”, the Vmax (c-AbI kinase; Abi1 peptide at 2 mM, 5-min assay, increasing substrate peptide, mean ± s.d., n=3) was 2.90 ± 1.16 pmol/min-μg and the Km (c-AbI kinase; Km of substrate peptide, Abi1 peptide at 2 mM) was 16.3 ± 0.6 µM. The Km (c-AbI kinase; Km of substrate peptide, Y213 at 0.1) was 14.9 ± 2.74 µM, the Km (c-AbI kinase; Km of substrate peptide, Y213 at 0.25) was 16.5 ± 7.29 µM and the “Fold Change (PEP)” value (c-AbI kinase; Abi1 peptide at 2 mM) was 0.018. For the same substance, the “Fold Change (PEP)” value (c-AbI kinase; Y213 at 0.1) was 0.71, the “Fold Change (PEP)” value (c-AbI kinase; Y213 at 0.25) was 0.55 and the Vmax (c-AbI kinase; Y213 peptide at 0.1 (mM)) was 112.11 ± 7.80 pmol/min-μg. The Vmax (c-AbI kinase; Y213 peptide at 0.25) was 86.68 ± 19.71 pmol/min-μg, the “effect” value (c-AbI kinase; [1]) was “significant kinase inhibition at lower concentrations than the pY213 peptide” and the “effect” value (c-AbI kinase; [2]) was “more significant reduction of the kinase activity than pY213”.
Substance “pY213: 14-residue Abi1 peptide containing phosphorylated tyrosine 213; Abi1 14-mer sequence vkpptvpndymtsp (SEQ ID NO:5) (VKPPTVPNDYMTSP)” has a Kd (AbI SH2 domain; peptide on SA chip, varying AbI SH2 concentration, 1:1 binding model, read-out: dissociation constant, KD) of 33.2 nM.
